The numbers were not newly measured in patent US8461314B2, “Nucleic acid sequences for biosynthesis of non-MccJ25-related lariat peptides” (Rutgers, The State University of New Jersey, priority 2007, dated 2013), which cites them from elsewhere.

In data set [1] the target is bacterial RNA polymerase (Escherichia coli, UniProt P0A8T7+P0A8V2).
The target of data set [2] is Gram-positive bacterial RNAP (Bacillus subtilis, UniProt P37870+P37871).
The test system of data set [3] is Escherchia coli.
Data set [4] concerns the target Gram-negative bacterial RNA polymerase (Escherichia coli, UniProt P0A8T7+P0A8V2).
Data set [5] has as its system mesophilic endo- and exopeptidease.
The target in data set [6] is Thermus-Deinoccoccus bacterial RNAP (Thermus thermophilus, UniProt Q8RQE8+Q8RQE9). Conditions: including, for example.
Data set [7] has as its system Salmonella sp.
Data set [8] has as its system RNA polymerase derivatives resistant to rifamycins.
The test system of data set [9] is Thermococcus-Deinococcus bacterial growth. The note with it: Thermococcus-Deinococcus bacteria.
The conditions of data set [10]: tested thermal and chemical denaturants.
The test system of data set [11] is Gram-positive bacterial. Conditions: Gram-positive bacteria.

Sequence of bacterial RNA polymerase (P0A800 whole entry): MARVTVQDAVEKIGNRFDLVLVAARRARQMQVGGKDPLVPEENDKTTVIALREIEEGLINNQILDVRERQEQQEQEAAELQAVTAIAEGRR
Sequence of bacterial RNA polymerase (P0A7Z4 whole entry, further chain): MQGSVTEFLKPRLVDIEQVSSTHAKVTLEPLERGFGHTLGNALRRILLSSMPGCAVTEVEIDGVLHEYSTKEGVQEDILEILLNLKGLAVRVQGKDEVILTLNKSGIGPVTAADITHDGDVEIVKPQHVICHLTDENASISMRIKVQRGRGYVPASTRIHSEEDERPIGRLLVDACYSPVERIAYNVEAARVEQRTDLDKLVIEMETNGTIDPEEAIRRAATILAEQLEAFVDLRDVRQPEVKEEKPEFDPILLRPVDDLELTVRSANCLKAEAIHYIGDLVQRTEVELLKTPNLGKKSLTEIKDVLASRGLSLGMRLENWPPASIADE
Sequence of bacterial RNA polymerase (P0A8T7 whole entry): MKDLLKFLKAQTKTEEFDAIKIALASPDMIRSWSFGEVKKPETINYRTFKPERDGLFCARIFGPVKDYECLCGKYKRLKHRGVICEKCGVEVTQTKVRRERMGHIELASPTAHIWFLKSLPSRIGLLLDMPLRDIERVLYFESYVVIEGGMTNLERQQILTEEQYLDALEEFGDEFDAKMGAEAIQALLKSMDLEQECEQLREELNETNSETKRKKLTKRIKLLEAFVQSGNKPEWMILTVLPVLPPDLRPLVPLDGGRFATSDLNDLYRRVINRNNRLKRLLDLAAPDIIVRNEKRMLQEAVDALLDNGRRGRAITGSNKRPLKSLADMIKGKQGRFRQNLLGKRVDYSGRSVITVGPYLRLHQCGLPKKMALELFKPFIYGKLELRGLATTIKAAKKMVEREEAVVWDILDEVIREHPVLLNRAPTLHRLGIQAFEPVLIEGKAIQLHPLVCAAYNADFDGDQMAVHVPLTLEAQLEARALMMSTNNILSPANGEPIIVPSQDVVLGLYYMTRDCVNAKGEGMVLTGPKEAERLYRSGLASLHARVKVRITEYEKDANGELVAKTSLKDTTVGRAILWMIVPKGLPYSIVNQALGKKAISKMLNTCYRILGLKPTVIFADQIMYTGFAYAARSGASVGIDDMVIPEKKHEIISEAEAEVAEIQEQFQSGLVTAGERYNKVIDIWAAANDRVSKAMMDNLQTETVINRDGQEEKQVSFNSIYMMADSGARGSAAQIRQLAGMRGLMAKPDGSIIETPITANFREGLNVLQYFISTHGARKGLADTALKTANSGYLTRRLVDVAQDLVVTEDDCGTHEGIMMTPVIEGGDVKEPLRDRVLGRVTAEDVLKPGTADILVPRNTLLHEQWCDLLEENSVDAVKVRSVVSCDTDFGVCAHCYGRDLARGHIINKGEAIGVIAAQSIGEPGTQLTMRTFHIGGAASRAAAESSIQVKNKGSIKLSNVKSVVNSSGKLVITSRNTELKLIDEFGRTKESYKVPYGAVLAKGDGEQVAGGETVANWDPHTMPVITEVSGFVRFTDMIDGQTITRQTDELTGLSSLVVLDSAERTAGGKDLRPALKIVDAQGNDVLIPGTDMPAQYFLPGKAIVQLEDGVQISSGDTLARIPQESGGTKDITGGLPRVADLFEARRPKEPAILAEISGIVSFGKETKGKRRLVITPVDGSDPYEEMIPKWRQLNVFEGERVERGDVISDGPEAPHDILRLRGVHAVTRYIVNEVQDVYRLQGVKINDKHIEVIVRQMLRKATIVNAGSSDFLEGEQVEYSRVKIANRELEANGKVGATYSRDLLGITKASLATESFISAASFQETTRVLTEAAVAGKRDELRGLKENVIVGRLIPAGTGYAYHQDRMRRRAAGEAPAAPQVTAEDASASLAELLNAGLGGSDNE
Sequence of bacterial RNA polymerase (P0A8V2 whole entry): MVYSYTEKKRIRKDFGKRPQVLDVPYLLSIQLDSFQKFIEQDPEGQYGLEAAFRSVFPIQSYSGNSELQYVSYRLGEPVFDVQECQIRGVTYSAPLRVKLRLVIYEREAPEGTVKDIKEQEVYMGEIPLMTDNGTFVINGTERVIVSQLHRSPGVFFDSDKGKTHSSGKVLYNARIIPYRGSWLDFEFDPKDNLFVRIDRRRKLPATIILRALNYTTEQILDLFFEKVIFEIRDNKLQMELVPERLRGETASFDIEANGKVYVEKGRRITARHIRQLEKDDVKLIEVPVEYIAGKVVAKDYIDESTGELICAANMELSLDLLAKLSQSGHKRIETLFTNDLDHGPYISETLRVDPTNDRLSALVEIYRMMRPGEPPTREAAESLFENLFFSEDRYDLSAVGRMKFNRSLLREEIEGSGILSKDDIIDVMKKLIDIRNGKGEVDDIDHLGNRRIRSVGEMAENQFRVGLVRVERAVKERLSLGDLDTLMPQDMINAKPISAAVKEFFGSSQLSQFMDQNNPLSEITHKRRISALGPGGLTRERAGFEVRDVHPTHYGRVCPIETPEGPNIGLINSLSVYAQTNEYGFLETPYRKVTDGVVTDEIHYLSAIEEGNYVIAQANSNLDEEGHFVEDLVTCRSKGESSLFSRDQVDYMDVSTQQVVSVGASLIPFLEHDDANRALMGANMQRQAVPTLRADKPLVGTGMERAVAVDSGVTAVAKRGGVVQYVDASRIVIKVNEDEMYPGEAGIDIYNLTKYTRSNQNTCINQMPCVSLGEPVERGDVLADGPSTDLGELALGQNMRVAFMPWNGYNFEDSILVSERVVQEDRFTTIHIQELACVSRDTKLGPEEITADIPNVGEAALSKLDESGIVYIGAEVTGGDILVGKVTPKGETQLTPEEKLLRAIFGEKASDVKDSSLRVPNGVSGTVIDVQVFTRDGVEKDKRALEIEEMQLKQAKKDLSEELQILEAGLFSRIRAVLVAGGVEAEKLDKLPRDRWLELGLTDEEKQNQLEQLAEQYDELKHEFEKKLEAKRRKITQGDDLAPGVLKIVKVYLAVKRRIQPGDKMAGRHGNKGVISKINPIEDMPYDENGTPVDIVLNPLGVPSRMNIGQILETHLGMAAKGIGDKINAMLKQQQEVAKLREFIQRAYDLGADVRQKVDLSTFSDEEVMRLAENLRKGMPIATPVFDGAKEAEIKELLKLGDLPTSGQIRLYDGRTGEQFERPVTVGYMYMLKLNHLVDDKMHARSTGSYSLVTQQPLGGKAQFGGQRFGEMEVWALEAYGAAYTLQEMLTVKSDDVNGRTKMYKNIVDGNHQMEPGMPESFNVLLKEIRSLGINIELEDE

For the substance “Gly1-Gly2-Ala3-Gly4-His5-Pro6-Val7-Glu8-Tyr9-Phe10-Val11-Gly12-Ile13-Gly14-Thr15-Pro16-Ile17-Ser18-Phe19-Tyr20-Gly21 cyclic(8→1) peptide [MccJ25]”, in data set [1], the “inhibition of bacterial RNA polymerase” value was “inhibits”. In addition, the “inhibition of Gram-positive bacterial RNAP” value in data set [2] is listed as “does not inhibit”. The antibacterial activity result in data set [3] and in data set [7] was “exhibits antibacterial activity” in each case. Also, the “inhibition of Gram-negative bacterial RNA polymerase” value in data set [4] is “inhibits”. Further, the resistance to proteolysis entry in [5] is reported as “complete resistance”. Also, the “inhibition of Thermus-Deinoccoccus bacterial RNAP” value in data set [6] is “does not inhibit”. In addition, the “ability to inhibit RNA polymerase derivatives resistant to rifamycins” value in data set [8] is reported as “retains full ability to inhibit”. Besides, the cross-resistance with rifamycins entry in data set [8] is reported as “no cross-resistance”. Besides, the “inhibition of bacterial growth” value in [9] and in data set [11] was “not inhibit” each time. For the same substance, in data set [10], the resistance to denaturation result is listed as “complete resistance”.

As for propeptin, the “inhibition of bacterial RNA polymerase” value in [1] was “inhibit”. Also, the “inhibition of Gram-positive bacterial RNAP” value in data set [2] was “inhibit”. Further, in [4], the “inhibition of Gram-negative bacterial RNA polymerase” value is “inhibit”. Besides, the “inhibition of Thermus-Deinoccoccus bacterial RNAP” value in [6] is on record as “inhibit”.
